Experiments:
[1] = test system: smoke inhalation injury followed by pneumonia; test: Pulmonary gas exchange (PaO2/FiO2 ratio, pulmonary shunt fraction) after smoke inhalation and pneumonia in sheep; format: in vivo; settings: nebulized every 4 hrs, 24-h study; vs saline-treated group (FIG. 1B)
Description: Recombinantly produced ATIII was dissolved in saline (42 mg/ml). Female sheep (n=24) were used. After the 48 breaths of cotton smoke (<40° C.), P. aeruginosa (5×10^11 CFU) was instilled in the both lungs. All the animals were mechanically ventilated by 100% O2 (Tidal volume 15 ml/kg, 30 breaths/min, PEEP 5 cmH2O). […] No animals died during the study.
(§1) The Animal Care and Use Committee of The University of Texas Medical Branch approved the experiments reported in this manuscript. All animals were handled within the guidelines established by the American Physiological Society and the National Institutes of Health. Twenty four female sheep were surgically prepared for study under halothane anesthesia as previously described (9). After measurement of baseline cardiovascular data, sheep received a combination injury of smoke inhalation and bacteria instillation as previously described (3).
Briefly, P. aeruginosa (5×10^9/kg) was instilled intrabronchially after the cotton smoke exposure (4 sets of 12 breaths, <40° C.). […]
(§2) The statistical software StatView 5.0 (SAS Institute, Cary, N.C.) was used to perform the analysis. Data are expressed as means±SEM. Repeated measured analysis of variance (ANOVA) or ANOVA with Tuckey's post hoc test was used to compare data among the groups. […]

[2] = Blood counts (WBC, platelets) after injury; format: in vivo, sheep
Text: as §1
(§3) Briefly, P. aeruginosa (5×10^9/kg) was instilled intrabronchially after the cotton smoke exposure (4 sets of 12 breaths, <40° C.). After the smoke inhalation and bacterial instillation, animals were randomly assigned for the two treatment groups, ATIII nebulization group (n=6), argatroban-nebulization group (n=8), and saline nebulization control group (n=10). All animals were mechanically ventilated with 100% oxygen throughout the 24-h study (Tidal volume 12-15 ml/kg, 30 breaths/min, PEEP 7.5 cmH2O). Tidal volume was adjusted to maintain PaCO2 normal. The Ringer's lactate solution was injected in sufficient volume to prevent the hematocrit from rising. Initially, 2 ml/kg/h of Ringer's lactate was infused, and we adjusted the in rate up to 10 ml/kg/h based on the hematocrit levels.
Recombinant human antithrombin (rhAT) was dissolved in distilled water (250 mg/30 mL). Then, the ATIII solution was mixed with 60 mL saline and 15 mL of the mixed solution containing 41.7 mg ATIII was nebulized every 4 hrs. […] The control group received 15 ml saline nebulization as the same fashion. The solutions were nebulized by an ultrasonic nebulizer (Ultra-Neb99, DeVilbiss Co., Somerset, Pa.), which was connected to the tracheobronchial tree as shown previously (10). The size of the particles obtained by the nebulizer is reported less than 4 microns. The nebulization was started one hour after the insult and every 4 hrs thereafter.
Arterial blood was cultured to test the bacteremia (Septi-check, Becton Dickinson, Sparks, Md.). Heparinized blood samples were carefully withdrawn from the femoral artery catheter at baseline and at 3, 6, 12, and 24 hrs.

P. aeruginosa = test: Arterial blood culture for bacteremia; format: in vivo, sheep; settings: during the 24 h study; no statistical difference from saline-treated group
Text: as §1
as §3, with “levels. […]” for “levels.”

[3] = test system: smoke inhalation injury followed by pneumonia; test: Plasma nitrate/nitrite (NOx) levels; format: in vivo, sheep; settings: over 24 h; vs saline-treated group (FIG. 6)
Text: as §1
as §3, with “Initially, 2 ml/kg/h of Ringer's lactate was infused, and we adjusted the in rate up to 10 ml/kg/h based on the hematocrit levels.” left out
The concentration of NOx (total amount of nitric oxide metabolites) in plasma was measured with a chemiluminescent NO analyser (Antek, model 7020) as previously described (11).

[4] = test system: smoke inhalation injury followed by pneumonia; test: Lung histopathology scores 24 h after smoke and bacterial challenge; format: in vivo, sheep; settings: vs saline control
Text: as §1, §3
Recombinant human antithrombin (rhAT) was dissolved in distilled water (250 mg/30 mL). Then, the ATIII solution was mixed with 60 mL saline and 15 mL of the mixed solution containing 41.7 mg ATIII was nebulized every 4 hrs. […] The control group received 15 ml saline nebulization as the same fashion. […]
(§4) A lung slice from the right lower lobe was histologically scored by a pathologist who was unaware of animal grouping (5). […] Airway obstruction by cast formation was also evaluated as previously described (3).
as §2

[5] = test system: smoke inhalation injury followed by pneumonia; test: Microscopic evaluation of airway obstruction by cast formation; format: in vivo, sheep
Text: as §1, §3
Recombinant human antithrombin (rhAT) was dissolved in distilled water (250 mg/30 mL). Then, the ATIII solution was mixed with 60 mL saline and 15 mL of the mixed solution containing 41.7 mg ATIII was nebulized every 4 hrs. […] The control group received 15 ml saline nebulization as the same fashion. The solutions were nebulized by an ultrasonic nebulizer (Ultra-Neb99, DeVilbiss Co., Somerset, Pa.), which was connected to the tracheobronchial tree as shown previously (10). The size of the particles obtained by the nebulizer is reported less than 4 microns. […]
as §4

[6] = 24 h, vs saline treated group (FIG. 4)

Structure (SMILES): CC1CNc2c(cccc2S(=O)(=O)N[C@@H](CCCNC(=N)N)C(=O)N2CC[C@@H](C)C[C@@H]2C(=O)O)C1 (stereo partly shown) [Argatroban]
- increase in pulmonary shunt fraction after the insult [1]: significantly less
- Platelets ([2]; 24 hrs after injury, Mean ± SE): 297 ± 78 ×10^3/μL
- WBC ([2]; 24 hrs after injury, Mean ± SE): 2.08 ± 0.81 ×10^3/μl
- decrease in leukocyte number 24 h after the injury ([2]; in words, Table 1): did not affect
- decrease in platelet count after the injury ([2]; in words, Table 1): slightly prevented
- animals with P. aeruginosa detected in arterial blood culture (P. aeruginosa): 0%
- increase in plasma NOx levels [3]: not a statistical difference
- hemorrhage score [4]: not higher but less
- individual histology scores in congestion, edema, inflammation, and hemorrhage (scale 0-4) [4]: almost the same scores as saline control
- total histology score (maximum 16) [4]: did not attenuate
- airway obstruction in bronchi levels [5, 6]: inhibited the obstruction significantly
- airway obstruction in bronchiole levels [5, 6]: inhibited the obstruction significantly
- prevention of cast formation (airway obstruction), comparison of the two agents ([5]; argatroban vs rhAT): more effective in preventing cast formation than rhAT
